# Data taken from US20250179194A1, “COMPOSITIONS AND METHODS FOR IMMUNOTHERAPY TARGETING FLT3, PD-1, AND/OR PD-L1” (Cytoimmune Therapeutics, Inc., priority 2018, published 2025).
# Experiments:
# [1] = system: surface FLT3 expression in MOLM-13, U937, THP-1, MV4-11, and EOL-1 AML cell lines; assay: Surface FLT3 expression in AML cell lines after FLT3 inhibitor treatment; format: cell-based, human; settings: 10 μM, 48 hours
# [2] = system: FLT3 surface density expression on AML blasts; assay: Surface FLT3 expression by flow cytometry on AML patient blasts; format: cell-based, human; settings: 48 hours, peripheral blood samples
# Protocol: FIG. 11 depicts the quantification of FLT3 surface density expression by flow cytometry on AML blasts before and after being treated with Midostaurin for 48 hours.
# Further experiments were conducted to determine whether FLT3 expression was increased upon administration of an FLT3 inhibitor. […] FIG. 11 depicts the detection of surface FLT3 expression by flow cytometry in peripheral blood samples of patients who were treated with Midostaurin for 48 hours.
Compound,FLT3 surface expression in AML cell lines [1],FLT3 surface expression on AML patient blasts [2]
CCCNc1nc(Nc2ccc(C#N)cc2)ncc1C#CCCCNC(=O)[C@H](C)N(C)C(=O)/C=C/CN(C)C [FF-10101],upregulated,
CO[C@@H]1[C@H](N(C)C(=O)c2ccccc2)C[C@H]2O[C@]1(C)n1c3ccccc3c3c4c(c5c6ccccc6n2c5c31)C(=O)NC4 [Midostaurin],upregulated,upregulated
Dovitinib [Dovitinib (TKI-258)],upregulated,
